From US12358919B2, “Antibacterial compounds” (Universita' degli Studi di Siena, priority 2019, dated 2025)

Assays:
[1] = tested on: Acinetobacter baumannii (N50 strain), multidrug-resistant clinical isolate resistant to polymyxin E1; assay: Time-kill curve analysis (bactericidal activity); assay type: cell-based; conditions: compound 32 mg/L + polymyxin E1 2 mg/L
Procedure: FIG. 1: bactericidal activity on Acinetobacter baumannii (N50 strain) of polymyxin E1, 2 mg/L (square); polymyxin E1, 2 mg/L+compound Ib 32 mg/L (triangles); control (circles).
Several methods were used to investigate the synergistic activity of the compounds, including (a) the determination of the MIC in the presence of a sub-inhibitory concentration of a suitable antibacterial agent, (b) the determination of the average FICI using a chequerboard analysis and (c) the time-kill curve analysis of a suitable agent (at a sub-inhibitory concentration) in the absence and presence of the pyrazolo[4,3-b]pyridin-6-carboxamide compound at a fixed concentration of 2 or 8 mg/L.
The kinetics of bacterial killing offers an additional mean to characterize the antibacterial activity of compounds, also in combination with other antimicrobial agents. Compounds or a combination thereof are defined as bactericides when the viable bacterial load is decreased by at least 3 log10 (EUCAST, cit.).
This analysis was carried with a multidrug-resistant Acinetobacter baumannii clinical isolate showing resistance to polymyxin E1. The time-kill curves were generated starting from a bacterial inoculum of 10^5 CFU/mL. Bacterial count was determined at several time intervals in the absence (control) or presence of 2 mg/L polymyxin E1 (corresponding to the resistance breakpoint, EUCAST, cit.) supplemented with 32 mg/L of compound Ib (FIG. 1).

in vitro = assay type: cell-based; conditions: human
Procedure: Growth inhibition or killing of bacteria was investigated using conventional methods widely described in the scientific literature. Parameters such as the Minimum Inhibitory Concentration (MIC) were determined as described in Clinical Laboratory Standard Institute (CLSI) document M07 “Methods for Dilution Antimicrobial Susceptibility Tests for Bacteria That Grow Aerobically, 11th Edition” (2018). Synergistic activity of the compounds described in the present specification were determined by measuring the variation of the MIC's compound in the absence and presence of a sub-inhibitory concentration of a suitable antibacterial agent, such as polymyxin E1. Furthermore, the Fractional Inhibitory Concentrations (FICs) were measured using a chequerboard analysis to determine the average FIC index (FICI), whose value is known to characterize the interaction between two compounds and/or drugs (≤0.5, synergistic interaction; >0.5 and <2, no interaction, additive effect; ≥2, antagonistic interaction). Furthermore, the selectivity of the compounds was investigated by measuring their cytotoxic effect on mammalian cell lines (e.g. HeLa cells).
The selectivity and potential cytotoxic effect of antibacterial compounds is a key aspect of such drugs. […]

CCCCn1c(=O)c(C(=O)NC23CC4CC(CC(C4)C2)C3)c(O)c2nn(C)cc21 [Ib, N-(Adamantan-1-yl)-4-(1-butyl)-4,5-dihydro-7-hydroxy-2-methyl-5-oxo-2H-pyrazolo[4,3-b]pyridin-6-carboxamide]
reduction in the bacterial viable count ([1]; after 30-60 min of incubation): more than 3 log 10 | viable count at subsequent time intervals ([1]; up to 24 hours): no viable could be detected | IC50 at 24 h (in vitro): > 256 mg/L
